In PubChem BioAssay (NCI):
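Grown in 96-well plates, cells were treated for 48 hours with each compound at five concentrations. Insufficient inhibition: endpoint recorded as highest concentration tested. Here, GI50 denotes the concentration required for 50% inhibition of growth. Definition used: TGI = concentration required for complete inhibition of growth.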

Experiments:
Assay in all cases: DTP human tumour cell line panel, 48 h
M14 melanoma = system: M14 melanoma
UACC-257 melanoma = system: UACC-257 melanoma
OVCAR-4 ovarian = system: OVCAR-4 ovarian
CAKI-1 renal = system: CAKI-1 renal
SK-OV-3 ovarian = system: SK-OV-3 ovarian
SF-295 CNS = system: SF-295 CNS
U251 CNS = system: U251 CNS
HL-60(TB) leukemia = system: HL-60(TB) leukemia
NCI-H226 lung = system: NCI-H226 lung
CCRF-CEM leukemia = system: CCRF-CEM leukemia

Structure (SMILES)	GI50 (M14 melanoma)	TGI (M14 melanoma)	GI50 (UACC-257 melanoma)	TGI (UACC-257 melanoma)	GI50 (OVCAR-4 ovarian)	TGI (OVCAR-4 ovarian)	GI50 (CAKI-1 renal)	TGI (CAKI-1 renal)	GI50 (SK-OV-3 ovarian)	TGI (SK-OV-3 ovarian)	GI50 (SF-295 CNS)	TGI (SF-295 CNS)	GI50 (U251 CNS)	TGI (U251 CNS)	GI50 (HL-60(TB) leukemia)	TGI (HL-60(TB) leukemia)	GI50 (NCI-H226 lung)	TGI (NCI-H226 lung)	GI50 (CCRF-CEM leukemia)	TGI (CCRF-CEM leukemia)
O=C(CCc1nnc2sc(-c3ccc(Cl)cc3Cl)nn12)c1nc2ncccc2[nH]1	3.35 µM	16.5 µM	3 µM	9.01 µM	1.92 µM	4.26 µM	1.42 µM	3.15 µM	21.5 µM	58 µM	1.83 µM	3.44 µM	1.92 µM	3.67 µM	2.91 µM	12.8 µM	1.7 µM	3.66 µM	2.68 µM	9 µM
CSc1nc(NC2OCC(OC(C)=O)C(OC(C)=O)C2OC(C)=O)c(N=CC=Nc2c(NC3OCC(OC(C)=O)C(OC(C)=O)C3OC(C)=O)nc(SC)[nH]c2=O)c(=O)[nH]1 (stereo not drawn)	–	> 100 µM	–	> 100 µM	–	> 100 µM	–	> 100 µM	–	80.1 µM	–	> 100 µM	–	> 100 µM	–	> 100 µM	–	> 88.8 µM	–	> 100 µM
O=C(CSc1ccc(Cl)cc1)Nc1ccc(-c2nc3ccccc3s2)c(Cl)c1	4.87 µM	33.8 µM	15.7 µM	> 100 µM	5.95 µM	> 100 µM	2.53 µM	10.3 µM	13.7 µM	44.1 µM	2 µM	5.42 µM	3.71 µM	18.7 µM	13.4 µM	> 100 µM	4.9 µM	64.1 µM	3.58 µM	> 100 µM
COc1c(Cl)c(=O)oc2ccc(Cl)cc12	–	> 100 µM	–	> 100 µM	–	> 100 µM	–	> 100 µM	–	> 100 µM	–	> 100 µM	–	> 100 µM	–	> 100 µM	–	> 100 µM	–	> 100 µM
C[C@@H]1CCC2[C@@H](C)[C@@H](OCC(CO[C@H]3OC4O[C@@]5(C)CC[C@H]6[C@H](C)CCC([C@H]3C)[C@@]46OO5)OC(=O)CCC(=O)O)OC3O[C@@]4(C)CC[C@@H]1[C@]32OO4 (stereo partly drawn)	4.05 µM	26.9 µM	0.708 µM	37.3 µM	0.0583 µM	26.3 µM	0.022 µM	0.477 µM	27.2 µM	> 100 µM	0.0335 µM	15.8 µM	< 0.01 µM	24.5 µM	0.0111 µM	0.513 µM	0.933 µM	40 µM	< 0.0279 µM	> 47.3 µM
COC(=O)C1=C(C)NC(C)=C(C(=O)OCCCN2CCC(c3ccccc3)(c3ccccc3)CC2)C1c1cccc([N+](=O)[O-])c1 (stereo not drawn)	–	3.13 µM	–	3.1 µM	–	2.98 µM	–	11.8 µM	–	12.9 µM	–	3.18 µM	–	3.21 µM	–	75 µM	–	18.2 µM	–	> 100 µM
CN(C)c1nc(=Nc2ccc(N=c3nc(N(C)C)ss3)cc2)ss1	–	25.6 µM	–	> 91.4 µM	–	48.1 µM	–	> 59.5 µM	–	> 100 µM	–	> 100 µM	–	> 49.8 µM	–	45.3 µM	–	> 100 µM	–	27.7 µM
O=C(/C=C\c1ccc(Cl)c(Cl)c1)c1ccc(Cl)cc1Cl	–	52.4 µM	–	36.5 µM	–	88.7 µM	–	> 100 µM	–	51 µM	–	47.1 µM	–	40.6 µM	3.46 µM	23.3 µM	6.39 µM	21.2 µM	4.62 µM	64.4 µM
